Biological target: T1, WWP2 (Homo sapiens, UniProt O00308)
T1 construct: made in house; host or cells: E. coli
Assay: STD NMR binding, WWP2
Conditions: 500 μM ligand, 20 μM protein
Method: Given the similarities between WWP1 and WWP2 HECT domains, we speculated that the relatively low sensitivity of DSF may not be able to detect weak WWP2-I3C interactions and therefore opted to investigate further using STD NMR. STD NMR is a versatile ligand-based NMR approach, relying on selective saturation of the protein. This saturation is transferred to the ligand when and if the ligand binds, causing a reduction of the signal intensities. The STD intensities are calculated as the difference of the reference spectra (where selective saturation is off) minus the irradiated spectra, and they are proportional to the vicinity of the protein surface. […]
An Amicon centrifuge filter unit with a 10 kDa MW cutoff was used to exchange the protein in 25 mM d19-2,2-bis(hydroxymethyl)-2,2′,2″-nitrilotriethanol, 100 mM NaCl and 1.0 mM DTT buffer pH* 8.9 (uncorrected for the deuterium isotope effect on the pH glass electrode) in D2O. […] All the NMR experiments were performed on a Bruker Avance 800.23 MHz at 278 K. Binding epitope mappings were obtained by determining the initial slopes (STD0) calculated by performing a least-squares fitting of the following monoexponential curve: [drawing 1] where STD(tsat) is the STD intensity for a saturation time, tsat, STDmax is the maximum STD intensity and ksat is the rate constant for saturation transfer. […]

T1 sequence (O00308 whole entry): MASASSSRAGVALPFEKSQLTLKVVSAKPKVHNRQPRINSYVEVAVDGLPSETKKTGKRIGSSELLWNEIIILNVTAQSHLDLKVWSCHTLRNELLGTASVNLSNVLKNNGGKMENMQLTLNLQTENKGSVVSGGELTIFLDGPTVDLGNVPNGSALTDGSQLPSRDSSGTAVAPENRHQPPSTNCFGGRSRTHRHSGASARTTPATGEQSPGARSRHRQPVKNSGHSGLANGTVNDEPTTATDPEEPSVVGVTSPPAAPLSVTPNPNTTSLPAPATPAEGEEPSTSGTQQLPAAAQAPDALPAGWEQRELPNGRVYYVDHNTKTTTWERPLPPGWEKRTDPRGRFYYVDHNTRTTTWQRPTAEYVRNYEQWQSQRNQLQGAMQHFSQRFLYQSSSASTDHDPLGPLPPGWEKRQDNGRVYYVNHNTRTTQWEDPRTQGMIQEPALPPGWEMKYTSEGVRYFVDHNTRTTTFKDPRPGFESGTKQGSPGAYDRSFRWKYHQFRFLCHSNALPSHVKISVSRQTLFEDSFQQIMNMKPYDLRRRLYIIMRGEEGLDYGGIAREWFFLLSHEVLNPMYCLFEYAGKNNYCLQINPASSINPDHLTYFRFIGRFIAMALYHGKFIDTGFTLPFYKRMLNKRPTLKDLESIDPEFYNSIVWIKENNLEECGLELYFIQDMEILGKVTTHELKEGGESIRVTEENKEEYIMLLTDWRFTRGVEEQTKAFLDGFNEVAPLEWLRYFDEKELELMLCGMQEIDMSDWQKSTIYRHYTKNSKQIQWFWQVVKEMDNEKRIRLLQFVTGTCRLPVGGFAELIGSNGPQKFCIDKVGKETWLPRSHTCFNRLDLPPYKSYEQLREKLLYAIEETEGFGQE

- STD intensities, WWP2-I3C complex (in words, compared with WWP1): much lower
SMILES: OCc1c[nH]c2ccccc12 [Compound I3C, Indole-3-carbinol, reference compound]
